Laboratory results as given in patent publication US6346543B1, “Use of a taxoid to treat abnormal cell proliferation in the brain” (priority 1998, dated 2002).
Several values for one entry are separate records, joined by “and”; a condition that tells them apart may be missing. Identical values can stand only once.

Assays:
[1] = Single i.v. bolus pharmacokinetic study in mice: plasma and brain levels by LC-MS/MS; format: in vivo, female C3H/HeN mice; details: mouse; for Plasma product (Ic) concentration: individual animals IV1-IV4
Protocol: Analytical Results Obtained from a Single i.v. Bolus Pharmacokinetic Study in Mice.
Groups of female C3H/HeN mice received the product by an intravenous route as a bolus at a dose level of 40 mg.kg^−1, equivalent to 120 mg.m^−2. Blood and brain samples were obtained from all dosed animals sacrificed at intervals up to 72 hours post dose. Brain and corresponding plasma samples were assayed for product (Ia) content by an LC-MS/MS assay.
2.25 mg.ml^−1 solution containing 5% Polysorbate 80, 5% ethanol, and 90% of an aqueous 5% glucose solution.
Fifty-six female C3H/HeN mice, each weighing ca 20 g, were each administered formulated product II by i.v. bolus via the tail vein at an injection volume of 0.4 ml to give a total dose of 40 mg.kg^−1.
Blood by cardiac puncture, and liver and brain by dissection after CO2 sacrifice.
Whole blood was collected in heparinised tubes, and corresponding plasma samples were obtained by centrifugation, and frozen immediately at −20° C. Tissues were blotted, weighed, and frozen immediately at −20° C. All samples were dispatched frozen for analysis. Upon receipt, samples were stored frozen at approximately −18° C. pending analysis.
LC-MS/MS (Sciex API III plus) in turbo-ionspray mode.
75×4.6 mm Supelcosil ABZ plus (3 μm).
Acetonitrile/methanol/ammonium acetate (10 mM); 40/25/35 v/v/v.
Plasma: Added 100 μl of acetonitrile to sample (50 μl). Vortexed, centrifuged, removed supernatant, added 100 μl of mobile phase and injected 150 μl .
Brain: Added 100 μl of acetonitrile to homogenised sample (100 mg of a 1:1 w/w brain with water homogenate) and vortexed. Added 1 ml of diethyl ether, vortexed, centrifuged, removed organic layer, and dried under N2. Reconstituted in 200 μl of mobile phase and injected 150 μl.
Plasma: Nine at concentrations of 5, 10, 20, 50, 100, 200, 300, 400 & 500 ng.ml^−1 (product Ia). Prepared by adding suitable aliquots of the product (concentrations =0.1, 1 or 10 μg.ml^−1) in ethanol to 0.5 ml aliquots of mouse plasma. Each sample was vortexed following drug addition; a 50 μl aliquot was then removed for assay.
Brain: Eleven at concentrations of 10, 20, 30, 100, 200, 300, 400, 500, 1000, 2500 & 5000 ng.g^−1 in homogenised mouse brain (1:1 w/w brain with water). Prepared by adding suitable aliquots of the product (concentrations=1, 10 or 100 μg.ml-^−1) in ethanol to 0.5, 1, 3 or 4 g of homogenised mouse brain. Each sample was vortexed following drug addition and a 100 mg aliquot was then removed for assay.
A biexponential equation was fitted to the profiles using an interactive linear least-square algorithm as part of the SIPHAR package.

[2] = system: intracranially implanted human glioblastoma U251; assay: Antitumor activity against intracranially implanted U251 glioblastoma in NCr-nu mice (RP-36); format: in vivo; details: for DAYS OF DEATH: individual animals
Protocol: The treatment schedule of the intracranially implanted U251 glioblastoma cells was iv, once daily, every sixth day for three treatments (q6d×3), beginning on day four post-implant. […] For the intracranially implanted studies, the compounds were evaluated based on their ability to increase the life span of the animals. The positive control used for both of these tumor models was nitrosourea.
The oversight committee was the Southern Research Institutional Animal Care and Use Committee; the protocol used was IACUC No. 96-8-50.
Product (Ia) was prepared in 5% ethanol, 5% tween 80, 90% D5W
Product (Ia) was administered in 0.4 ml/mouse based on a total body weight average.
Nitrosourea was administered 0.1 ml/10 g of body weight.
Any intracranially implanted animal that appeared to be moribund was euthanized for humane purposes. Since efficacy studies fall within this category of basic research, experiment termination was based on resultants that were determined to be optimal.
Six to eight week old athymic NCr-nu female mice were used for the intracranially implanted U251 trials.
The cells were injected into the cerebrum to the right of the midline with a 25 gauge, ⅜ inch, stainless steel needle. Cultured cells were used for the U251 experiment (RP-36). The treatment schedule was q6d×3, iv, beginning on day four, post-implant. […] The treatment schedule was q4d×3, iv, beginning on day two, post-implant. Nitrosourea was given in each experiment for comparative purposes because of its known activity against CNS tumors.

[3] = plasma, i.v. 40 mg.kg^−1, calculated from values ≧b.l.q. of 20 ng.ml^−1
[4] = plasma, i.v. 40 mg.kg^−1, calculated from values ≧l.o.d. of 4 ng.ml^−1
[5] = 13.4 mg/kg/dose IV Q6D×3(4), listed as Product I(a)
[6] = 13.4 mg/kg/dose IV Q6D×3(4), listed as product (Ia)
[7] = 20.0 mg/kg/dose IV Q6D×3(4), listed as Product I(a)
[8] = 20.0 mg/kg/dose IV Q6D×3(4), listed as product (Ia)
[9] = 30.0 mg/kg/dose IV Q6D×3(4), listed as Product I(a)
[10] = 30.0 mg/kg/dose IV Q6D×3(4), listed as product (Ia)

CO[C@H]1C(=O)[C@]2(C)[C@@H](OC)C[C@H]3OC[C@@]3(OC(C)=O)[C@H]2[C@H](OC(=O)c2ccccc2)[C@]2(O)C[C@H](OC(=O)[C@H](O)[C@@H](NC(=O)OC(C)(C)C)c3ccccc3)C(C)=C1C2(C)C [Product (Ia), 4α-acetoxy-2α-benzoyloxy-5β, 20-epoxy-1β-hydroxy-7β, 10β-dimethoxy-9-oxo-11-taxen-13α-yl (2R,3S)-3 tert-butoxycarbonylamino-2-hydroxy-3-phenylpropionate]
AUC0-72h ([1]; brain, i.v. 40 mg.kg^−1): *the corresponding AUC0-72h = 549.7 h.μg.g^−1 | Terminal T½ ([1]; brain, i.v. 40 mg.kg^−1): 31.4 h | AUC0-∞ ([1]; brain, i.v. 40 mg.kg^−1, mean data, extrapolated from 72 h, listed as product (Ic)): 787.g* h.μg.g^−1 | Mean total plasma clearance ([1]; i.v. 40 mg.kg^−1): 1.3 I.h^−1.kg^−1 | levels in the brain relative to those in the plasma (on the basis of AUC0∞ values) ([1]; i.v. 40 mg.kg^−1): about twenty | time post dose up to which plasma levels persisted above the limit of accurate quantification (20 ng.ml^−1) ([1]; i.v. 40 mg.kg^−1): up to 14 h | time post dose up to which plasma levels were consistently above the limit of detection (4 ng.ml^−1) ([1]; i.v. 40 mg.kg^−1): up to 24 h | Plasma product (Ic) concentration ([1]; i.v. 40 mg.kg^−1, 2 min after dose): 52987 ng/mL and 45942 ng/mL and 49607 ng/mL and 38994 ng/mL | Plasma product (Ic) concentration, MEAN ([1]; i.v. 40 mg.kg^−1, 2 min after dose, mean of IV1-IV4): 46882 ng/mL | Plasma product (Ic) concentration ([1]; i.v. 40 mg.kg^−1, 5 min after dose): 36734 ng/mL and 33538 ng/mL and 32077 ng/mL and 34903 ng/mL | Plasma product (Ic) concentration, MEAN ([1]; i.v. 40 mg.kg^−1, 5 min after dose, mean of IV1-IV4): 34313 ng/mL | Plasma product (Ic) concentration ([1]; i.v. 40 mg.kg^−1, 15 min after dose): 20493 ng/mL and 20897 ng/mL and 21051 ng/mL and 19459 ng/mL | Plasma product (Ic) concentration, MEAN ([1]; i.v. 40 mg.kg^−1, 15 min after dose, mean of IV1-IV4): 20475 ng/mL | Plasma product (Ic) concentration ([1]; i.v. 40 mg.kg^−1, 0.5 h after dose): 10765 ng/mL and 10344 ng/mL and 9170 ng/mL and 11232 ng/mL | Plasma product (Ic) concentration, MEAN ([1]; i.v. 40 mg.kg^−1, 0.5 h after dose, mean of IV1-IV4): 10378 ng/mL | Plasma product (Ic) concentration ([1]; i.v. 40 mg.kg^−1, 0.75 h after dose): 7133 ng/mL and 10948 ng/mL and 8121 ng/mL and 10148 ng/mL | Plasma product (Ic) concentration, MEAN ([1]; i.v. 40 mg.kg^−1, 0.75 h after dose, mean of IV1-IV4): 9087 ng/mL | Plasma product (Ic) concentration ([1]; i.v. 40 mg.kg^−1, 1 h after dose): 6017 ng/mL and 7423 ng/mL and 6693 ng/mL and 6079 ng/mL | Plasma product (Ic) concentration, MEAN ([1]; i.v. 40 mg.kg^−1, 1 h after dose, mean of IV1-IV4): 6553 ng/mL | Plasma product (Ic) concentration ([1]; i.v. 40 mg.kg^−1, 4 h after dose): 1072 ng/mL and 1110 ng/mL and 835 ng/mL and 830 ng/mL | Plasma product (Ic) concentration, MEAN ([1]; i.v. 40 mg.kg^−1, 4 h after dose, mean of IV1-IV4): 962 ng/mL | Plasma product (Ic) concentration ([1]; i.v. 40 mg.kg^−1, 6 h after dose): 449 ng/mL and 316 ng/mL and 346 ng/mL and 336 ng/mL | Plasma product (Ic) concentration, MEAN ([1]; i.v. 40 mg.kg^−1, 6 h after dose, mean of IV1-IV4): 362 ng/mL | Plasma product (Ic) concentration ([1]; i.v. 40 mg.kg^−1, 8 h after dose): 204 ng/mL and 199 ng/mL and 195 ng/mL and 154 ng/mL | Plasma product (Ic) concentration, MEAN ([1]; i.v. 40 mg.kg^−1, 8 h after dose, mean of IV1-IV4): 188 ng/mL | Plasma product (Ic) concentration ([1]; i.v. 40 mg.kg^−1, 14 h after dose): 65 ng/mL and 56 ng/mL and 50 ng/mL and 52 ng/mL | Plasma product (Ic) concentration, MEAN ([1]; i.v. 40 mg.kg^−1, 14 h after dose, mean of IV1-IV4): 56 ng/mL | Plasma product (Ic) concentration ([1]; i.v. 40 mg.kg^−1, 24 h after dose, blq = below limit of accurate quantification (20 ng.ml^−1)): ~18(blq) ng.ml^−1 and ~15(blq) ng.ml^−1 (2×) and ~16(blq) ng.ml^−1 | Plasma product (Ic) concentration, MEAN ([1]; i.v. 40 mg.kg^−1, 24 h after dose, mean of IV1-IV4 (all blq)): 16 ng/mL | Plasma product (Ic) concentration ([1]; i.v. 40 mg.kg^−1, 48 h after dose, n.d. = not detected (≦l.o.d. of 4 ng.ml^−1)): ~4(blq) ng.ml^−1 | Plasma product (Ic) concentration, MEAN ([1]; i.v. 40 mg.kg^−1, 48 h after dose, mean of IV1-IV4 (blq / n.d.)): 2 ng/mL | brain level, peak ([1]; i.v. 40 mg.kg^−1, at 14 h): 9.1 µg/g | brain level ([1]; i.v. 40 mg.kg^−1, last sampling time, 72 h): 5.3 µg/g | plasma level, peak (mean) ([1]; i.v. 40 mg.kg^−1, peak at 2 minutes): 46900 ng/mL | Plasma product (Ic) concentration ([1]; i.v. 40 mg.kg^−1, time after dose printed as — (between 1 h and 4 h)): 4633 ng/mL and 4337 ng/mL and 4600 ng/mL and 3564 ng/mL | Plasma product (Ic) concentration, MEAN ([1]; i.v. 40 mg.kg^−1, time after dose printed as — (between 1 h and 4 h), mean of IV1-IV4): 4283 ng/mL | plasma level ([1]; i.v. 40 mg.kg^−1, within 4 h): less than 1 μg.ml^−1 | penetration of the blood brain barrier ([1]; post-i.v. administration): appeared to readily penetrate the blood brain barrier | ClT (total plasma clearance) [1, 3]: 1.3 1.h^−1.kg^−1 | Initial T½ [1, 3]: 0.2 h | Terminal T½ [1, 3]: 2.0 h | Vdss [1, 3]: 2.4 1.kg^−1 | ClT (total plasma clearance) [1, 4]: 1.3 1.h^−1.kg^−1 | Initial T½ [1, 4]: 0.7 h | Terminal T½ [1, 4]: 6.2 h | Vdss [1, 4]: 1.9 1.kg^−1 | MEDIAN DAY OF DEATH ([2]; 13.4 mg/kg/dose IV Q6D×3(4)): 83.0 days | DAYS OF DEATH ([2]; 13.4 mg/kg/dose IV Q6D×3(4)): 69 day (2×) and 83 day (4×) and 122 day | 122-DAY SURV./TOTAL [2, 5]: 3/10 | % ILS [2, 5]: +144% | 122-DAY SURV./TOTAL [2, 6]: three of ten | % ILS [2, 6]: 144% | MEDIAN DAY OF DEATH ([2]; 20.0 mg/kg/dose IV Q6D×3(4)): 103.0 days | DAYS OF DEATH ([2]; 20.0 mg/kg/dose IV Q6D×3(4)): 58 day and 98 day and 100 day and 106 day (2×) and 122 day | 122-DAY SURV./TOTAL [2, 7]: 4/10 | % ILS [2, 7]: +202% | 122-DAY SURV./TOTAL [2, 8]: four of ten | % ILS [2, 8]: 202% | MEDIAN DAY OF DEATH ([2]; 30.0 mg/kg/dose IV Q6D×3(4)): 94.0 days | DAYS OF DEATH ([2]; 30.0 mg/kg/dose IV Q6D×3(4)): 21 days and 34 days and 94 days and 98 days and 103 days | 122-DAY SURV./TOTAL [2, 9]: 5/10 | % ILS [2, 9]: +176% | 122-DAY SURV./TOTAL [2, 10]: five of ten | % ILS [2, 10]: 176% | activity against intracranially implanted U251 glioblastoma ([2]; iv q6d×3): quite active | MTD ([2]; iv q6d×3, U251 experiment RP-36): 20 mg/kg/dose
